A short description of data set [1]: Topotecan cytotoxicity with Tdp1 inhibitor (MTT), HEK293A. The class given is cell-based. The note with it: human, HEK293A cells (embryonic kidney, nontumor); topotecan alone or in the presence of 5 µM Tdp1 inhibitor. From the text:
(§1) Tdp1 inhibitors combined with topotecan dramatically reduce tumor metastasis. Usnic acid derivatives of the enamine and hydrazonothiazole series turned out to be promising sensitizers of the action of topotecan both on cultured cell lines and on mouse tumors in vivo [30, 32]. We studied the ability of the usnic acid derivatives to sensitize the effects of topotecan on the same panel of cell lines. We used two non-cancerous cell lines MRC-5 and HEK293A, including previously obtained HEK293A Tdp1 knockout cells (for compound 7), and cancerous cell lines HeLa, HCT-116, A-549, MCF-7, T98G. We found the most pronounced and reliable sensitizing effect on cancerous cell lines HeLa, HCT-116, A-549, MCF-7 only for compound 7 (Table 2 and Figures S2 and S3).
(§2) Cytotoxicity of the compounds against human tumor cell lines: HeLa (cervical cancer), HCT-116 (colorectal cancer), A-549 (lung cancer), MCF-7 (breast cancer), T98G (glioblastoma), HepG2 (hepatocarcinoma), and nontumor cell lines: MRC-5 (lung fibroblasts) and HEK293A (human embryonic kidney) was examined using the MTT test. HCT-116 and MRC-5 cell lines were provided by the Cell Culture Bank of the State Research Center for Virology and Biotechnology Vector, Novosibirsk, Russia. A-549, MCF-7, and T98G cell lines were obtained from the Russian Cell Culture Collection (RCCC) Institute of Cytology RAS (St. Petersburg, Russia). […]

Another data set has as its system HeLa. In words: Topotecan cytotoxicity with Tdp1 inhibitor (MTT), HeLa. The class given is cell-based. Particulars: Homo sapiens, topotecan alone or in the presence of 5 µM Tdp1 inhibitor.
From the text: as §1, §2

A further data set concerns T98G. In words: Topotecan cytotoxicity with Tdp1 inhibitor (MTT), T98G. The class given is cell-based. The note with it: Homo sapiens, topotecan alone or in the presence of 5 µM Tdp1 inhibitor.
From the text: as §1, §2

Data set [2] relates to various types of cultured cells. Briefly: MTT test, panel of cultured cell lines. The class given is cell-based. The note with it: at concentrations up to 100 μM; wide panel of tumor and non-cancerous cell lines. An excerpt: (§3) Compounds 6 and 8 with a bromophenol residue in the enamine fragment have a weak or moderate effect on cell survival (Table 1 and Supplementary Figure S1).
(§4) Cytotoxicity of the compounds against human tumor cell lines: HeLa (cervical cancer), HCT-116 (colorectal cancer), A-549 (lung cancer), MCF-7 (breast cancer), T98G (glioblastoma), HepG2 (hepatocarcinoma), and nontumor cell lines: MRC-5 (lung fibroblasts) and HEK293A (human embryonic kidney) was examined using the MTT test. HCT-116 and MRC-5 cell lines were provided by the Cell Culture Bank of the State Research Center for Virology and Biotechnology Vector, Novosibirsk, Russia. A-549, MCF-7, and T98G cell lines were obtained from the Russian Cell Culture Collection (RCCC) Institute of Cytology RAS (St. Petersburg, Russia). HEK293A cells were purchased (ThermoFisher Scientific, Waltham, MA, USA).
The cell culture medium DMEM medium (Invitrogen, Carlsbad, CA, USA) contained 10% fetal bovine serum (FBS) (Invitrogen), penicillin (100 units/mL), and streptomycin (100 µg/mL). Cells were seeded into 96-well plates at 5000 cells per well and grown at 37 °C and 5% CO2 in a humid atmosphere. At 30–50% confluence, the tested compounds were added to the medium to a final DMSO content of 1%. Control wells contained 1% DMSO. […]
On the technique in general: Tetrazolium assays rely on reduction of a dye to a coloured formazan, in cell work by metabolically active cells.

The nature of data set [3]: MTT cytotoxicity test, A-549. The note with it: human, A-549 cells (lung cancer), read-out: semitoxic concentration (CC50), A-549. The class given is cell-based.
From the text: as §3, §4
(§5) The cell culture medium DMEM medium (Invitrogen, Carlsbad, CA, USA) contained 10% fetal bovine serum (FBS) (Invitrogen), penicillin (100 units/mL), and streptomycin (100 µg/mL). Cells were seeded into 96-well plates at 5000 cells per well and grown at 37 °C and 5% CO2 in a humid atmosphere. At 30–50% confluence, the tested compounds were added to the medium to a final DMSO content of 1%. Control wells contained 1% DMSO. To determine the cytotoxicity of Tdp1 inhibitors, the cells were treated with compounds with concentrations ranging from 1 to 100 µM for 72 h at 37 °C […]. All measurements were repeated a minimum of twice.

Another data set deals with T1, Tdp1 (Homo sapiens, UniProt Q9NUW8).
T1 construct: Purified Tdp1 (1.5 nM) triggered the reaction
Briefly: Tdp1 inhibition, fluorescent oligonucleotide biosensor. Particulars: purified Tdp1 1.5 nM, 50 nM biosensor; read-out: Concentration of half-maximal inhibition of Tdp1 (IC50). The class given is biochemical. An excerpt:
The inhibitory properties of the compound on the purified Tdp1 was studied using a technique developed previously by our team. A 16-mer single-stranded oligonucleotide carrying a fluorophore at the 5′-end and a quencher at the 3′-end was used as a biosensor. When within the Förster radius, the quencher suppressed the fluorescence of the fluorophore. The quencher was removed by Tdp1, resulting in fluorescence emission. Usnic acid derivatives with a bromophenol residue in the enamine fragment (compounds 6 and 8) inhibit the enzyme with half-maximal inhibition concentrations (IC50) an order of magnitude worse than derivatives with a di-tert-butyl fragment (compounds 5 and 7).
An oligonucleotide 5′-[FAM] AAC GTC AGGGTC TTC C [BHQ1]-3′ synthesized in the laboratory Laboratory of Nucleic Acids Chemistry at the Institute of Chemical Biology and Fundamental Medicine (Novosibirsk, Russia) was used as a biosensor. Removal of the quencher (BHQ1) due to enzyme activity leads to increased fluorescence of FAM. The reaction was carried out at different concentrations of inhibitors (1.5% of DMSO, Sigma, St. Louis, MO, USA, in the control samples). The reaction mixtures contained Tdp1 buffer (50 mM Tris-HCl pH 8.0, 50 mM NaCl, and 7 mM β-mercaptoethanol), 50 nM biosensor, and an inhibitor being tested. Purified Tdp1 (1.5 nM) triggered the reaction.
The fluorescence was measured using POLARstar OPTIMA fluorimeter (BMG LABTECH, GmbH, Ortenberg, Germany). The values of IC50 were determined in minimum three independent experiments and were calculated using embedded software MARS Data Analysis 2.0 (BMG LABTECH, GmbH, Ortenberg, Germany).

The nature of data set [4]: MTT cytotoxicity test, HEK293A. Particulars: human, HEK293A cells (embryonic kidney, nontumor), read-out: semitoxic concentration (CC50), HEK293A. The class given is cell-based.
From the text: as §3, §4, §5

Data set [5] in a line: MTT cytotoxicity test, MRC-5. The class given is cell-based. The note with it: human, MRC-5 cells (lung fibroblasts, nontumor), read-out: semitoxic concentration (CC50), MRC-5.
From the text: as §3, §4, §5

The nature of data set [6]: MTT cytotoxicity test, MCF-7. Particulars: human, MCF-7 cells (breast cancer), read-out: semitoxic concentration (CC50), MCF-7. The class given is cell-based.
From the text: as §3, §4, §5

Where only a bound is given, the exact number is not on record here.

T1 sequence (Q9NUW8 whole entry): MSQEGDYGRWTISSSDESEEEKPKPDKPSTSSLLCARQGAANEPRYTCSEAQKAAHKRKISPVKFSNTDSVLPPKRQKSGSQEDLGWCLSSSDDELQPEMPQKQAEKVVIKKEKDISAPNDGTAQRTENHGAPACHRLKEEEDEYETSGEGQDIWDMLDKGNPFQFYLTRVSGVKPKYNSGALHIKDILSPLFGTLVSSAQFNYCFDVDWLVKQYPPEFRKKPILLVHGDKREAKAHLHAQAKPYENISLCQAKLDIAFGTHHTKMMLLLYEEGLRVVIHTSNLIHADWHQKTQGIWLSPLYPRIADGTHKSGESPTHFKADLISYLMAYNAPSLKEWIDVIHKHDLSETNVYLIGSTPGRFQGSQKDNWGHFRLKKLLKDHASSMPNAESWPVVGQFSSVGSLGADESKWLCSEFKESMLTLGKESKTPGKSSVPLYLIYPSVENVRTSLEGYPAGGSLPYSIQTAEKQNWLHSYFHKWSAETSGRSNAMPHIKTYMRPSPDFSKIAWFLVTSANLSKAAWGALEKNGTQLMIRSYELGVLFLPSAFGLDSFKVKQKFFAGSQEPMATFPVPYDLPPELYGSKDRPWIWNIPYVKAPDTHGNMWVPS

`CC[C@@]1(O)C(=O)OCc2c1cc1n(c2=O)Cc2cc3c(CN(C)C)c(O)ccc3nc2-1` [Tpc, topotecan]: the CC50 in data set [1] is 0.033 µM; in the data set on HeLa, 9.9 µM; with T98G it was 2.5 µM.

On to `C/C(NCCCc1cc(C(C)(C)C)c(O)c(C(C)(C)C)c1)=C1\C(=O)C=C2Oc3c(-c4csc(N/N=C/c5ccc(Br)cc5)n4)c(O)c(C)c(O)c3[C@@]2(C)C1=O` [Compound 7, (4E)-10-{2-[(E)-2-[(4-bromophenyl)methylidene]hydrazin-1-yl]-1,3-thiazole-4-yl}-4-(1-{[3-(3,5-di-tret-butyl-4-hydroxyhenyl)propyl]amino}ethylidene)-11,13-dihydroxy-2,12-dimethyl-8-oxatricyclo [7.4.0.02,7]trideca-1(13),6,9,11-tetraen-3,5-dione], for which the “living cells (metabolic activity, MTT)” value in [2] is “more than 50%”. The CC50 at 72 h in data set [3], in data set [4], in [5] and in [6] was above 100 µM each time. Also, at Tdp1, the IC50 turned out to be 0.12 ± 0.01 µM.
